Experimental findings from the SangsterLogP compilation are described below.

One may read the logP as a log measure of how a compound divides between an organic and an aqueous phase. Broadly, the logD is the decadic logarithm of the distribution of all forms, ionised or not, between an organic phase and buffer at a given pH.

The first data set in a line: method code SF, from DOI: 10.1021/jm201475u, PMID: 22339047.
Conditions: not given
In turn, `CCn1cc(O)c(=O)c(F)c1` came in with a logP of -0.89.

Compound `O=c1cc[nH]c(C(O)C(F)(F)F)c1O` (configuration not stated) showed a logP of 0.14.

Compound `Cc1c(O)c(=O)c(F)cn1C` had a logP of -0.8.

In the case of `CC(C)n1ccc(=O)c(O)c1F`, the logP is -0.41.

Compound `O=c1c(O)c(F)[nH]c(F)c1F` registered a logP of 1.7.

Consider `O=c1cc[nH]c(C(F)(F)F)c1O`, for which the log partition coefficient (logP) is 0.87.

Regarding `CCCn1cc(O)c(=O)c(F)c1`, the logP was -0.46.

`CCn1ccc(=O)c(O)c1F` had a logP of -0.58.

On to `Cc1cn(C)c(F)c(O)c1=O`, for which the logP is -0.65.

Take `O=c1cc(F)[nH]c(F)c1O`: the logP came to 1.35.

For `CC(C)n1cc(O)c(=O)c(F)c1`, the logP was -0.92.

Turning to `Cc1[nH]cc(F)c(=O)c1O`, the logP stood at 0.

Take `Cn1ccc(=O)c(O)c1C(F)(F)F`: the logP is -0.45.

`Cn1cc(O)c(=O)c(F)c1` showed a logP of -1.32.

The compound `CCCn1ccc(=O)c(O)c1F` registered a logP of -0.08.

Compound `Cn1ccc(=O)c(O)c1F` yielded a logP of -0.97.

As for `CCCCn1ccc(=O)c(O)c1F`, the logP is 0.38.

Staying with this data set, now noted: pH 7.4.
`O=c1cc[nH]c(F)c1O`: the logD was -0.21.

In the case of `Cc1c[nH]c(F)c(O)c1=O`, the logD was found to be 0.5.

For `Cc1cc(=O)c(O)c(F)[nH]1`, the logD worked out at 0.25.

For the compound `CCc1c(O)c(=O)ccn1CC`, the logD was determined as 0.23.

`Cc1[nH]c(F)c(O)c(=O)c1C` had a logD of 1.07.
